# Starred links: 1 amine or outer side, 2 acyl side, 3 side chain; linkers in the order of their positions; H or OH if unused. Positions of bridges follow the written chain, without caps; N, C: chain ends. Residues, ends and D or L forms follow the SMILES beside them. *: point of attachment. C18 diacid = O=C(O)CCCCCCCCCCCCCCCCC(=O)*; γGlu = O=C(O)[C@H](CCC(=O)[*:2])N[*:1]; AEEA = NCCOCCOCC(=O)O
# Biological target: T1, human natriuretic peptide receptor 2 (hNPR2) (Homo sapiens, UniProt P20594)
# T1 construct: expressed in transfected cells; host or cells: HEK293 (ATCC CRL-1573), clone 35, co-transfected with pGloSensor-42F
# T1 sequence (P20594 23-1047): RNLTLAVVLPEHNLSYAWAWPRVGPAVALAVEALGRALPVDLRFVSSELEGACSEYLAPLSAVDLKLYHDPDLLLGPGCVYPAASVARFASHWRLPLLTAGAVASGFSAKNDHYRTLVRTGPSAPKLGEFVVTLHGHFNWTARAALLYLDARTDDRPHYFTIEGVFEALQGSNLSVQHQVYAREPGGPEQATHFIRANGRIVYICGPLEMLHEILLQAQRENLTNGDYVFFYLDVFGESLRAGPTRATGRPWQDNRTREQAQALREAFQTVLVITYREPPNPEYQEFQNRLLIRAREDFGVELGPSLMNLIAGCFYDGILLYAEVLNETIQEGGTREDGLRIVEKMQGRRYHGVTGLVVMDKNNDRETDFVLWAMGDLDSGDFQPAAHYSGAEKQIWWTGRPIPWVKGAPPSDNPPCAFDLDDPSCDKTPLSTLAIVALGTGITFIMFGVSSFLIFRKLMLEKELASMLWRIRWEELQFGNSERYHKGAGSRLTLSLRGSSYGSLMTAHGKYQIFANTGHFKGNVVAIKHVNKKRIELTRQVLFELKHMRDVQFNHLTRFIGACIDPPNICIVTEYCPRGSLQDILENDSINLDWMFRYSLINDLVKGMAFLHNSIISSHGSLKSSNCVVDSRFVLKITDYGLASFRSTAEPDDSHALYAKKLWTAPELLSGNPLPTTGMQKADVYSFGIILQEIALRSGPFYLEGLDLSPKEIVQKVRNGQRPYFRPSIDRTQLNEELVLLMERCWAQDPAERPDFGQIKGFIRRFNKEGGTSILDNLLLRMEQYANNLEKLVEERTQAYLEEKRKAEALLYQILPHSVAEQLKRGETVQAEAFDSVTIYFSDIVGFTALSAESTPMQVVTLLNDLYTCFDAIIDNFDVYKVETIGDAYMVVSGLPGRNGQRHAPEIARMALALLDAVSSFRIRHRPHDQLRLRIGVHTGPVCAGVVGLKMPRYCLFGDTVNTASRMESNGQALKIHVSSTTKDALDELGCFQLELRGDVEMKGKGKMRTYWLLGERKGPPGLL
# Assay: In vitro hNPR2 activity assay (cGMP GloSensor reporter, HEK293)
# Format: cell-based
# Details: for EC50: 0% HSA, HEK293-hNPR2/GloSensor cells; for hNPR2 0% HSA. [EC50% rel CNP]: potency relative to CNP22 (0065)
# Outline: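 Potency is the EC50 from a four-parameter logistic fit, also expressed relative to the in-plate CNP22 control (×100), with at least two replicates. Compounds (ten concentrations, […], HSA-free diluent with 1% OVA, 0.01% Tween20) were incubated 30 min at 37 °C on HEK293 cells co-expressing hNPR2 and a GloSensor cGMP luciferase. Luminescence detected with Bright-Glo.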
Structure (SMILES),EC50 [nM],hNPR2 0% HSA. [EC50% rel CNP] [%]
CC[C@H](C)[C@@H]1NC(=O)[C@H](CCCNC(=N)N)NC(=O)[C@H](CCC(=O)O)NC(=O)[C@H](CC(C)C)NC(=O)[C@@H]2CCCN2C(=O)[C@H](CC(C)C)NC(=O)CNC(=O)[C@H](Cc2ccccc2)NC(=O)[C@@H](NC(=O)CNC(=O)[C@H](CCC(N)=O)NC(=O)[C@H](CO)NC(=O)[C@H](CC(C)C)NC(=O)CNC(=O)[C@H](CCCCN)NC(=O)[C@H](CCCCN)NC(=O)[C@H](CCC(N)=O)NC(=O)[C@H](C)NC(=O)CNC(=O)[C@H](CCCCN)NC(=O)[C@H](Cc2ccc(O)cc2)NC(=O)[C@H](CCCCN)NC(=O)[C@H](CCCNC(=N)N)NC(=O)[C@H](C)NC(=O)COCCOCCNC(=O)COCCOCCNC(=O)COCCOCCNC(=O)COCCOCCNC(=O)CC[C@H](NC(=O)CC[C@H](NC(=O)CC[C@H](NC(=O)CC[C@H](NC(=O)CC[C@H](NC(=O)CCCCCCCCCCCCCCCCC(=O)O)C(=O)O)C(=O)O)C(=O)O)C(=O)O)C(=O)O)CSSC[C@@H](C(=O)O)NC(=O)CNC(=O)[C@H](CC(C)C)NC(=O)CNC(=O)[C@H](CO)NC(=O)[C@H](CC(C)C)NC(=O)[C@H](CO)NC(=O)CNC1=O [compound 1477] ({C18 diacid-γGlu-γGlu-γGlu-γGlu-γGlu-AEEA-AEEA-AEEA-AEEA}-ARKYKGAQKKGLSQGCFGLPLERIGSLSGLGC-OH; disulfide 16-32),0.13,10.3
CC[C@H](C)[C@@H]1NC(=O)[C@H](CCCNC(=N)N)NC(=O)[C@H](CC(=O)O)NC(=O)[C@H](CC(C)C)NC(=O)[C@@H]2CCCN2C(=O)[C@H](CC(C)C)NC(=O)CNC(=O)[C@H](Cc2ccccc2)NC(=O)[C@@H](NC(=O)CNC(=O)[C@H](CCC(N)=O)NC(=O)[C@H](CO)NC(=O)[C@H](CC(C)C)NC(=O)CNC(=O)[C@H](CCCCN)NC(=O)[C@H](CCCCN)NC(=O)[C@H](CCC(N)=O)NC(=O)[C@H](C)NC(=O)CNC(=O)[C@H](CCCCN)NC(=O)[C@H](Cc2ccc(O)cc2)NC(=O)COCCOCCNC(=O)COCCOCCNC(=O)COCCOCCNC(=O)COCCOCCNC(=O)CC[C@H](NC(=O)CC[C@H](NC(=O)CCCCCCCCCCCCCCCCC(=O)O)C(=O)O)C(=O)O)CSSC[C@@H](C(=O)O)NC(=O)CNC(=O)[C@H](CC(C)C)NC(=O)CNC(=O)[C@H](CO)NC(=O)[C@H](CC(C)C)NC(=O)[C@H](CO)NC(=O)CNC1=O [compound 1478] ({C18 diacid-γGlu-γGlu-AEEA-AEEA-AEEA-AEEA}-YKGAQKKGLSQGCFGLPLDRIGSLSGLGC-OH; disulfide 13-29; C-terminus assumed),–,26.6
CC[C@H](C)[C@@H]1NC(=O)[C@H](CCCNC(=N)N)NC(=O)[C@H](CC(=O)O)NC(=O)[C@H](CC(C)C)NC(=O)[C@@H]2CCCN2C(=O)[C@H](CC(C)C)NC(=O)CNC(=O)[C@H](Cc2ccccc2)NC(=O)[C@@H](NC(=O)CNC(=O)[C@H](CCC(N)=O)NC(=O)[C@H](CO)NC(=O)[C@H](CC(C)C)NC(=O)CNC(=O)[C@H](CCCCN)NC(=O)[C@H](CCCCN)NC(=O)[C@H](CCC(N)=O)NC(=O)[C@H](C)NC(=O)CNC(=O)[C@@H]2CCCN2C(=O)[C@H](C)NC(=O)[C@H](CCC(N)=O)NC(=O)CNC(=O)COCCOCCNC(=O)COCCOCCNC(=O)CC[C@H](NC(=O)CCCCCCCCCCCCCCCCC(=O)O)C(=O)O)CSSC[C@@H](C(=O)O)NC(=O)CNC(=O)[C@H](CC(C)C)NC(=O)CNC(=O)[C@H](CO)NC(=O)[C@H](CC(C)C)NC(=O)[C@H](CO)NC(=O)CNC1=O [compound 1484] ({C18 diacid-γGlu-AEEA-AEEA}-GQAPGAQKKGLSQGCFGLPLDRIGSLSGLGC-OH; disulfide 15-31; C-terminus assumed),–,27.9
CC[C@H](C)[C@@H]1NC(=O)[C@H](CCCNC(=N)N)NC(=O)[C@H](CCC(=O)O)NC(=O)[C@H](CC(C)C)NC(=O)[C@@H]2CCCN2C(=O)[C@H](CC(C)C)NC(=O)CNC(=O)[C@H](Cc2ccccc2)NC(=O)[C@@H](NC(=O)CNC(=O)[C@H](CCC(N)=O)NC(=O)[C@H](CO)NC(=O)CNC(=O)CNC(=O)[C@H](CCCCN)NC(=O)[C@H](CCCCN)NC(=O)[C@H](CCC(N)=O)NC(=O)[C@H](C)NC(=O)CNC(=O)[C@H](CCCCN)NC(=O)[C@H](Cc2ccc(O)cc2)NC(=O)COCCOCCNC(=O)COCCOCCNC(=O)COCCOCCNC(=O)COCCOCCNC(=O)CC[C@H](NC(=O)CC[C@H](NC(=O)CCCCCCCCCCCCCCCCC(=O)O)C(=O)O)C(=O)O)CSSC[C@@H](C(=O)O)NC(=O)CNC(=O)[C@H](CC(C)C)NC(=O)CNC(=O)[C@H](CO)NC(=O)[C@H](CC(C)C)NC(=O)[C@H](CO)NC(=O)CNC1=O [compound 1489] ({C18 diacid-γGlu-γGlu-AEEA-AEEA-AEEA-AEEA}-YKGAQKKGGSQGCFGLPLERIGSLSGLGC-OH; disulfide 13-29),0.22,3.7
CC[C@H](C)[C@@H]1NC(=O)[C@H](CCCNC(=N)N)NC(=O)[C@H](CC(=O)O)NC(=O)[C@H](CC(C)C)NC(=O)[C@@H]2CCCN2C(=O)[C@H](CC(C)C)NC(=O)CNC(=O)[C@H](Cc2ccccc2)NC(=O)[C@@H](NC(=O)CNC(=O)[C@H](CCC(N)=O)NC(=O)[C@H](CO)NC(=O)[C@H](CO)NC(=O)CNC(=O)[C@H](CCCCN)NC(=O)[C@H](CCCCN)NC(=O)[C@H](CCC(N)=O)NC(=O)[C@H](C)NC(=O)CNC(=O)[C@@H]2CCCN2C(=O)[C@H](C)NC(=O)[C@H](CCC(N)=O)NC(=O)CNC(=O)COCCOCCNC(=O)COCCOCCNC(=O)CC[C@H](NC(=O)CCCCCCCCCCCCCCCCC(=O)O)C(=O)O)CSSC[C@@H](C(=O)O)NC(=O)CNC(=O)[C@H](CC(C)C)NC(=O)CNC(=O)[C@H](CO)NC(=O)[C@H](CC(C)C)NC(=O)[C@H](CO)NC(=O)CNC1=O [compound 9384] ({C18 diacid-γGlu-AEEA-AEEA}-GQAPGAQKKGSSQGCFGLPLDRIGSLSGLGC-OH; disulfide 15-31; C-terminus assumed),–,53.7
CC[C@H](C)[C@@H]1NC(=O)[C@H](CCCNC(=N)N)NC(=O)[C@H](CC(=O)O)NC(=O)[C@H](CC(C)C)NC(=O)[C@@H]2CCCN2C(=O)[C@H](CC(C)C)NC(=O)CNC(=O)[C@H](Cc2ccccc2)NC(=O)[C@@H](NC(=O)CNC(=O)[C@H](CCC(N)=O)NC(=O)[C@H](CO)NC(=O)[C@H](CC(C)C)NC(=O)CNC(=O)[C@H](CCCCN)NC(=O)[C@H](CCCCN)NC(=O)[C@H](CCC(N)=O)NC(=O)[C@H](C)NC(=O)CNC(=O)[C@H](CCCCN)NC(=O)[C@H](Cc2ccc(O)cc2)NC(=O)[C@H](CCCCN)NC(=O)[C@H](CCCNC(=N)N)NC(=O)[C@H](C)NC(=O)COCCOCCNC(=O)COCCOCCNC(=O)COCCOCCNC(=O)COCCOCCNC(=O)CC[C@H](NC(=O)CC[C@H](NC(=O)CC[C@H](NC(=O)CC[C@H](NC(=O)CC[C@H](NC(=O)CCCCCCCCCCCCCCCCC(=O)O)C(=O)O)C(=O)O)C(=O)O)C(=O)O)C(=O)O)CSSC[C@@H](C(=O)O)NC(=O)CNC(=O)[C@H](CC(C)C)NC(=O)CNC(=O)[C@H](CO)NC(=O)[C@H](CC(C)C)NC(=O)[C@H](CO)NC(=O)CNC1=O [compound 9407] ({C18 diacid-γGlu-γGlu-γGlu-γGlu-γGlu-AEEA-AEEA-AEEA-AEEA}-ARKYKGAQKKGLSQGCFGLPLDRIGSLSGLGC-OH; disulfide 16-32),–,38.6
